Values joined by “and” are separate entries in the source; they are usually repeats but may differ in a detail not shown here. Equal values may be shown once. Read-outs that look alike come from different tables or passages of the source.
Columns and labels:
A549/ATCC = assay: NCI-60 SRB screen
HCC-2998 = conditions: for growth GP: HCC-2998, 10 μM, 48 h
HCT-15 = assay: NCI-60 SRB screen; conditions: HCT-15, 48 h
UO-31 = conditions: UO-31, 48 h
UACC-62 = assay: NCI-60 SRB screen; conditions: for growth GP: UACC-62, 10 μM, 48 h
MDA-MB-435 = conditions: MDA-MB-435, 48 h
OVCAR-4 [1] = test system: OVCAR-4
HS 578T = conditions: 48 h
SR = assay: cells; conditions: Homo sapiens, 48 h
SK-MEL-28 [2] = assay: cells; conditions: Homo sapiens, SK-MEL-28, 48 h
UACC-257 = assay: cells; conditions: Homo sapiens, UACC-257, 48 h; for CC50: read-out: LC50, UACC-257, 48 h
SNB-75 = assay: NCI-60 SRB screen; conditions: SNB-75, 48 h; for CC50: read-out: LC50, SNB-75, 48 h
Colon cancer = assay: NCI-60 SRB screen, subpanel; conditions: for MG_MID TGI: Colon cancer subpanel
SN12C [3] = conditions: SN12C, 48 h; for growth GP: 10 μM
LOX IMVI = conditions: 48 h; for growth GP / TGI: LOX IMVI; for growth GP: 10 μM
SK-MEL-5 = conditions: for growth GP: SK-MEL-5, 10 μM
T-47D = conditions: 48 h
EKVX = assay: NCI-60 SRB screen; conditions: 48 h; for CC50: read-out: LC50, EKVX, 48 h
Ovarian cancer = Ovarian cancer subpanel
SF-539 = conditions: for growth GP: SF-539, 10 μM, 48 h
MOLT-4 [4] = conditions: MOLT-4, 48 h
OVCAR-4 [5] = assay: cells; conditions: Homo sapiens, OVCAR-4, 48 h; for CC50: read-out: LC50, OVCAR-4, 48 h
SK-MEL-28 [6] = conditions: SK-MEL-28, 48 h
HL-60(TB) = assay: NCI-60 SRB screen
Prostate Cancer [7] = assay: cells; conditions: Homo sapiens, read-out: MG_MID GI50
MOLT-4 [8] = assay: cells; conditions: Homo sapiens, MOLT-4, 48 h; for CC50: read-out: LC50, MOLT-4, 48 h
RPMI-8226 = conditions: RPMI-8226, 48 h
COLO 205 = conditions: COLO 205, 48 h
Prostate Cancer [9] = conditions: Prostate Cancer subpanel
OVCAR-8 = assay: cells; conditions: Homo sapiens, OVCAR-8, 48 h
Breast cancer = Breast cancer subpanel
SW-620 = assay: NCI-60 SRB screen; conditions: SW-620, 48 h
M14 = assay: NCI-60 SRB screen; conditions: M14, 48 h
SN12C [10] = assay: cells; conditions: Homo sapiens, 48 h
Renal Cancer = Renal Cancer subpanel
HOP-62 = assay: NCI-60 SRB screen
HCT-116 = assay: cells; conditions: Homo sapiens, HCT-116, 48 h

O=C(O)CCN1C(=O)/C(=C/C=C/c2ccc([N+](=O)[O-])o2)SC1=S [12b, 3-((Z)-5-((E)-3-(5-Nitrofuran-2-yl)allylidene)-4-oxo-2-thioxothiazolidin-3-yl)propanoic acid]
TGI (A549/ATCC; 48 h): 12.4 µM
GI50 (A549/ATCC; Homo sapiens, A549, 48 h): 3.21 µM
growth GP (HCC-2998): -95.81%
TGI (HCC-2998; HCC-2998, 48 h): 9.26 µM
TGI (HCT-15): 3.50 µM
TGI (UO-31): 2.25 µM
GI50 (UACC-62; Homo sapiens, UACC-62, 48 h): 0.65 µM
CC50 (UACC-62; Homo sapiens, UACC-62, 48 h, read-out: LC50, UACC-62, 48 h): 4.16 µM
growth GP (UACC-62): -97.43%
TGI (UACC-62; UACC-62, 48 h): 2.00 µM
TGI (MDA-MB-435): 2.48 µM
TGI (OVCAR-4 [1]; OVCAR-4, 48 h): 3.79 µM
TGI (HS 578T): 7.93 µM
GI50 (SR): 0.3 µM
GI50 (SK-MEL-28 [2]): 1.57 µM
CC50 (SK-MEL-28 [2]; read-out: LC50, SK-MEL-28, 48 h): 5.93 µM
GI50 (UACC-257): 1.81 µM
CC50 (UACC-257): 9.21 µM
GI50 (SNB-75; Homo sapiens): 1.1 µM
CC50 (SNB-75; Homo sapiens): 14.1 µM
TGI (SNB-75): 3.67 µM
MG_MID TGI (Colon cancer): 2.93 µM
growth GP (SN12C [3]): -95.84%
TGI (SN12C [3]): 2.32 µM
growth GP (LOX IMVI): -95.70%
TGI (LOX IMVI): 1.86 µM
growth GP (SK-MEL-5; 48 h): -97.62%
TGI (SK-MEL-5; SK-MEL-5, 48 h): 2.24 µM
TGI (T-47D): 3.55 µM
TGI (EKVX): 9.26 µM
GI50 (EKVX; Homo sapiens): 2.69 µM
CC50 (EKVX; Homo sapiens): 31.1 µM
MG_MID TGI (Ovarian cancer): 5.84 µM
growth GP (SF-539): -96.95%
TGI (SF-539; SF-539, 48 h): 3.65 µM
TGI (MOLT-4 [4]): 2.56 µM
GI50 (OVCAR-4 [5]): 1.79 µM
CC50 (OVCAR-4 [5]): 8.07 µM
TGI (SK-MEL-28 [6]): 3.05 µM
TGI (HL-60(TB); HL-60(TB), 48 h): 3.30 µM
GI50 (HL-60(TB); Homo sapiens, HL-60, 48 h, HL-60(TB), 48 h): 1.28 µM
GI50 (Prostate Cancer [7]): 2.55 µM
GI50 (MOLT-4 [8]): 0.58 µM
CC50 (MOLT-4 [8]): > 100 µM
TGI (RPMI-8226): 4.48 µM
TGI (COLO 205): 12.4 µM
MG_MID TGI (Prostate Cancer [9]): 10.6 µM
GI50 (OVCAR-8): 1.84 µM
CC50 (OVCAR-8; read-out: LC50, OVCAR-8, 48 h): 28.2 µM
TGI (DU-145; DU-145, 48 h): 10.6 µM
MG_MID TGI (Breast cancer): 3.64 µM
TGI (SW-620): 19.8 µM
GI50 (M14; Homo sapiens): 1.48 µM
CC50 (M14; Homo sapiens, read-out: LC50, M14, 48 h): 6.31 µM
TGI (M14): 3.05 µM
GI50 (SN12C [10]): 1.07 µM
CC50 (SN12C [10]; read-out: LC50, SN12C, 48 h): 5.04 µM
MG_MID TGI (Renal Cancer): 6.01 µM
TGI (HOP-62; HOP-62, 48 h): 3.57 µM
GI50 (HOP-62; Homo sapiens, HOP-62, 48 h): 1.61 µM
TGI (BT-549; BT-549, 48 h): 2.88 µM

O=C(O)CCCN1C(=O)/C(=C/C=C/c2ccc([N+](=O)[O-])o2)SC1=S [13b, 4-((Z)-5-((E)-3-(5-Nitrofuran-2-yl)allylidene)-4-oxo-2-thioxothiazolidin-3-yl)butanoic acid]
GI50 (A549/ATCC; 48 h): 0.78 µM
GI50 (A549/ATCC; Homo sapiens, A549, 48 h): 1.36 µM
growth GP (HCC-2998): -95.27%
GI50 (HCT-15): 0.11 µM
TGI (HCT-15): 0.52 µM and 0.33 µM
GI50 (HCT-15; Homo sapiens): 0.18 µM
GI50 (UACC-62; Homo sapiens, UACC-62, 48 h): 0.31 µM
growth GP (UACC-62): -95.10%
GI50 (UACC-62; UACC-62, 48 h): 0.18 µM
growth GP (OVCAR-4 [1]; OVCAR-4, 10 μM, 48 h): -97.74%
GI50 (OVCAR-4 [1]; OVCAR-4, 48 h): 1.56 µM
TGI (OVCAR-4 [1]; OVCAR-4, 48 h): 2.58 µM and 2.94 µM
CC50 (OVCAR-4 [1]; human, 48 h): 5.54 µM
CC50 (SR; read-out: LC50): > 100 µM
CC50 (UACC-257): 6.36 µM
GI50 (SNB-75; Homo sapiens): 0.38 µM
CC50 (SNB-75; Homo sapiens): 8.73 µM
GI50 (SNB-75): 0.32 µM
TGI (SNB-75): 1.99 µM and 1.37 µM
MG_MID TGI (Colon cancer): 1.35 µM
GI50 (Colon cancer; Homo sapiens, read-out: MG_MID GI50): 0.52 µM
CC50 (Colon cancer; Homo sapiens, read-out: MG_MID LC50): 11.9 µM
growth GP (SN12C [3]): -96.81%
GI50 (SN12C [3]): 0.17 µM
growth GP (LOX IMVI): -96.12%
TGI (LOX IMVI): 0.42 µM and 0.39 µM
CC50 (LOX IMVI; human): 0.81 µM
growth GP (SK-MEL-5; 48 h): -98.67%
GI50 (SK-MEL-5; SK-MEL-5, 48 h): 1.21 µM
TGI (SK-MEL-5; SK-MEL-5, 48 h): 1.97 µM and 2.68 µM
CC50 (SK-MEL-5; human, 48 h): 5.96 µM
GI50 (T-47D): 0.23 µM
GI50 (EKVX): 1.05 µM
TGI (EKVX): 4.24 µM and 2.52 µM
GI50 (EKVX; Homo sapiens): 1.83 µM
CC50 (EKVX; Homo sapiens): 9.84 µM
MG_MID TGI (Ovarian cancer): 2.99 µM
growth GP (SF-539): -98.91%
GI50 (MOLT-4 [4]): 0.29 µM
TGI (MOLT-4 [4]): 1.86 µM and 1.16 µM
GI50 (OVCAR-4 [5]): 1.16 µM
CC50 (OVCAR-4 [5]): 5.75 µM
CC50 (HL-60(TB); Homo sapiens, HL-60, 48 h, read-out: LC50, HL-60(TB), 48 h): > 100 µM
GI50 (Prostate Cancer [7]): 0.82 µM
GI50 (MOLT-4 [8]): 0.41 µM
CC50 (MOLT-4 [8]): 8.99 µM
TGI (RPMI-8226): 1.58 µM
MG_MID TGI (Prostate Cancer [9]): 2.57 µM
GI50 (OVCAR-8): 0.46 µM
growth GP (DU-145; DU-145, 10 μM, 48 h): -99.43%
GI50 (DU-145; DU-145, 48 h): 1.15 µM
TGI (DU-145; DU-145, 48 h): 2.32 µM and 2.83 µM
CC50 (DU-145; human, 48 h): 7.01 µM
GI50 (HCT-116): 0.31 µM
MG_MID TGI (Breast cancer): 2.15 µM
GI50 (SW-620; Homo sapiens): 0.24 µM
GI50 (SW-620): 0.28 µM
TGI (SW-620): 0.54 µM and 0.83 µM
GI50 (SN12C [10]): 0.34 µM
MG_MID TGI (Renal Cancer): 2.60 µM
growth GP (HOP-62; HOP-62, 10 μM, 48 h): -94.79%
TGI (HOP-62; HOP-62, 48 h): 2.67 µM and 1.90 µM
growth GP (BT-549; BT-549, 10 μM, 48 h): -98.54%

Reference: PMC12655351, “Synthesis and Anticancer Activity Evaluation of New 5-((5-Nitrofuran-2-yl)allylidene)-2-thioxo-4-thiazolidinones” (Pharmaceuticals, 2025)
